# Data published in patent US4882234A, “Storage-stable porphin compositions and a method for their manufacture” (Healux, Inc., priority 1986, dated 1989).
# Test system: albino mouse ear vasculature
# Experiment: Phototoxicity to normal skin vasculature, Evans blue assay in albino mouse ear
# Parameters: species or system Swiss-Webster mice
# Settings: in vivo; for M.E.D. (minimum effective dose to damage ear vasculature): 1440 min
# Text: The major side effect of hematoporphyrin derivative preparations in tumor phototherapy is the extended phototoxicity to normal skin (by way of the exposed skin vasculature) for a month or longer after injection of therapeutic doses.
# The Evans blue assay method assumes that the primary site of photodamage is the vascular system and uses Evans blue (colloidal dye) extravasation through damaged vascular wall into surrounding tissues to measure the relative phototoxicity as the minimum effective dose (M.E.D.) of photosensitizer necessary to cause a statistically significant increase in tissue Evans blue content. The higher the dose of photosensitizer required the lower the phototoxicity. […] This is possibly due in site aggregation and inhibition of the photosensitized reaction.
Substance,Evans Blue Increase,M.E.D. (minimum effective dose to damage ear vasculature),Relative phototoxicity at higher doses
tetraphenyl porphyrin sulfonate [TPPS],84%,2.5 mg/kg,
zinc phthalocyanine sulfonate [ZPS],30%,22 mg/kg,
Photofrin,,,relative phototoxicity is decreased at higher doses
